The source of these data is patent US6511966B2, “Mitochondria protecting agents for treating mitochondria associated diseases” (MitoKor, priority 1998, dated 2003).

Assay [1] concerns SH-SY5Y human neuroblastoma cells. Description: DCFC assay for inhibition of ROS production, cell-based aspect. The note with it: read-out: IC50 Cell-Based (Inhibition of ROS, DCFC assay). The source says: According to this assay, the ability of a mitochondria protecting agent of the invention to inhibit production of ROS intracellularly may be compared to its antioxidant activity in a cell-free environment. […] Non-fluorescent DCFC is converted upon oxidation to a fluorophore that can be quantified fluorimetrically. Cell membranes are also permeable to DCFC, but the charged acetate groups of DCFC are removed by intracellular esterase activity, rendering the indicator less able to diffuse back out of the cell. In the cell-based aspect of the DCFC assay for inhibition of production of ROS, cultured cells may be pre-loaded with a suitable amount of DCFC and then contacted with a mitochondria protecting agent. After an appropriate interval, free radical production in the cultured cells may be induced by contacting them with iron (III)/ascorbate and the relative mean DCFC fluorescence can be monitored as a function of time. In the cell-based aspect of the DCFC assay, monolayers of cultured adherent SH-SY5Y human neuroblastoma cells (Biedler et al., Cancer Res. 33:2643, 1973) at or near confluence were rinsed and harvested using trypsin according to standard methods. […] The excess DCFC-DA was removed by needle aspiration and each well was gently rinsed twice with HBSS. Each well then received 80 μl of HBSS and 10 μl of mitochondria protecting agent, or vehicle control, diluted into HBSS from stock solutions of dimethylformamide or dimethylsulfoxide. The final concentration of the organic solvent was maintained at or below 0.1% (v/v) in HBSS while in contact with cells. Cells were equilibrated for 15 minutes at room temperature with the mitochondria protecting agent (or vehicle control) and then 10 μl of fresh 500 μM ferric chloride/300 μM ascorbate solution was added to initiate free radical formation. Fluorescence of each microculture in the 96-well plate was quantified immediately using a Cytofluor fluorimetric plate reader (model #2350, Millipore Corp., Bedford, Mass.; excitation wavelength=485 nm, emission wavelength=[…]) and t0 fluorescence was recorded. The 96-well plates were incubated 30 minutes at 37° C./5% CO2 and fluorescence at 530 nm was again measured (t30). […] The cells were then harvested by trypsinization and counted using a hemacytometer in order to normalize the data as Δ(t30,−t0)RMF per cell. The efficacy of a candidate mitochondria protecting agent was determined by comparing its ability to inhibit ROS production relative to the vehicle control.

The subject of assay [2] is SH-SY5Y neuroblastoma cells. Description: Ionomycin induced apoptosis (membrane blebbing by light microscopy). The assay is classed as cell-based, human. The protocol: SH-SY5Y neuroblastoma cells (1×10^5 cells) are rinsed with one volume 1×PBS, and then treated with 10 μM ionomycin (Calbiochem, San Diego, Calif.) in DMEM supplemented with 10% fetal calf serum (FCS) (Gibco, Life Technologies, Grand Island, N.Y.) for 10 minutes, followed by two washes with DMEM (10% FCS). After 6h incubation at 37° C. in DMEM (10% FCS), cells are visualized by light microscopy (20X magnification). […] When cells are simultaneously treated with ionomycin and 2 mM creatine, the proportion of cells undergoing apoptosis as evidenced by membrane blebbing is reduced to approximately 10%. Candidate mitochondria protecting agents are assayed to determine whether they provides the same magnitude of protection from induction of apoptosis as does creatine in this ionomycin induced apoptosis assay.

[3] abbreviates: Homo sapiens, 0.5 h, SH-SY5Y cells pre-loaded with DCFC-DA, ferric chloride/ascorbate induced free radical formation, fluorescence change over 30 minutes.

SMILES strings stand for the structures. Read-outs that look alike come from different tables or passages of the source.

The term IC50 denotes the concentration that gives 50% inhibition. On to `CCCCCCCCc1ccc(O)c(N)c1` [(I-2), 2-amino4octyl phenol], for which the IC50 in assay [1] (setting [3]) was 0.025 µM.
Still for that read-out and setting: with `CC(C)(C)CC(C)(C)c1ccc(O)c(N)c1` [(I-3)] the figure was 0.065 µM; with `OCCCc1ccc(O)c(O)c1` [(I-5)], 0.1 µM; with `CCCc1ccc(O)c(O)c1` [(I-6), 2-hydroxy4-propylphenol], 0.2 µM.
Consider `CCCc1ccc(OC(C)=O)c(OC(C)=O)c1` [(I-8)], for which the IC50 in assay [1] (setting [3]) amounted to 0.4 µM.
Turning to `CCCc1cc(O)ccc1O` [(I-10)], in assay [1] (setting [3]), the IC50 is 0.12 µM.
Regarding `CC(C)(c1ccc(O)c(N)c1)c1ccc(O)c(N)c1` [(II-2)], in assay [1] (setting [3]), the IC50 worked out at 0.035 µM.
On to `CC(C)(c1ccc(O)cc1)c1ccc(O)cc1` [(II-5), 4,4′-Isopropylidenediphenol], for which the 50% inhibitory concentration (IC50) in assay [1] (setting [3]) was 1 µM.
Consider `CN(C)c1cc(C(C)(C)c2ccc(O)c(N(C)C)c2)ccc1O` [(II-6)], for which the half-inhibitory concentration (IC50) in assay [1] (setting [3]) worked out at 0.01 µM.
In the case of `CC(C)(c1ccc(O)cc1)c1ccc(O)c(NC(=N)N)c1` [(II-10)], the IC50 in assay [1] (Homo sapiens, SH-SY5Y, 0.5 h) is 1 µM.
Consider `CC1=CC(C)(C)Nc2ccc(O)cc21` [(III-3), 2,2,4-trimethyl-1,2-dihydro-quinolin-6-ol], for which the IC50 in assay [1] (setting [3]) came out at 0.07 µM.
Consider `CCOc1ccc2c(c1)C(C)=CC(C)(C)N2` [(III-4), 6-ethoxy-1,2-dihydro-2,2,4-trimethylguinoline], for which, in assay [1] (SH-SY5Y cells pre-loaded with DCFC-DA, ferric chloride/ascorbate induced free radical formation, fluorescence change over 30 minutes), the IC50 amounted to 0.02 µM.
Turning to `Cc1c(C)c2c(c(C)c1O)CCC(C)(CNNC(=N)N)O2` (stereo not drawn) [(IV-9)], the IC50 in assay [1] (setting [3]) stood at 1 µM.
With `CN(CC(=O)O)C(=N)N` [creatine], the “proportion of cells undergoing apoptosis as evidenced by membrane blebbing” value in assay [2] (cells simultaneously treated with 10 μM ionomycin and 2 mM creatine, 6h incubation at 37° C.) is “approximately 10%”.
`C[C@H](CCC(=O)O)C[C@H](C)C[C@H](C)C(=O)/C=C(\O)[C@H](C)C[C@H](C)C/C=C/[C@@H](C)[C@@H](O)[C@@H](C)[C@@H](O)C[C@@H]1CC[C@@](C)([C@H]2CC[C@@](C)([C@@H](C)O)O2)O1` [ionomycin]: in assay [2] (10 μM ionomycin for 10 minutes, then 6h incubation at 37° C., untreated cells <5%), the “ionomycin treated cells exhibiting membrane blebbing (final stage of apoptosis)” value was “Approximately 80%”.
